Assay results from publication PMC11530130, “Peripherally restricted PICK1 inhibitor mPD5 ameliorates pain behaviors in murine inflammatory and neuropathic pain models” (JCI Insight, 2024).
Where “and” joins values, the source holds several entries; their conditions need not be identical. Equal entries are not always repeated.

Tested on: mice, spared nerve injury (SNI) model
Assay: Ultrasonic vocalisation (USV) recordings at 37 kHz, SNI mice
Format: in vivo, mouse
Conditions: for Ultrasonic vocalisations, individual animals (Fig 5E): SNI mice
Method: Time spent in each compartment was […]
compartment was used to define three even groups.
Conditioning (DAY 2-9): Mice were injected s.c. with PBS, morphine (10 mg/kg) (RH Pharmacy, Denmark, Vnr. 475249), or 10 μmol/kg mPD5 immediately before being placed in and confined to the appropriate compartment for 40 min. Drug was paired to the least-preferred compartment, conditioning was alternated so that mice were never placed in the same compartment two days in a row, and the day on which they were exposed to drug was […]
Preference test (DAY 10): Mice were allowed to freely move between the two compartments […]
Ultrasonic vocalisation (USV) recordings.
Mice were left in Med-Associates square behavioral chambers (27 cm x 27 cm) to freely roam around for 60 min, four days in a row. […] On day three, both control and SNI mice were placed directly in the chambers and recorded for 60 min. On day four, control mice were injected s.c. with PBS, and SNI mice were injected with either 10 μmol/kg mPD5 or PBS immediately before being placed in the chambers and recorded for 60 min. The recordings were analyzed using the Avisoft SASLab Pro software (Version 5.02.07, Avisoft Bioacoustics) as described in (12), applying a fast fourier transformation (FFT) (1024 FTT length, 100% frame size, Blackman window, and 87.5% time window overlap). […]
To compare pain-relevant vocalizations, only short and constant USVs of 37 kHz were counted […]
Mice were pretreated with 10 μmol/kg mPD5, 10 mg/kg morphine (RH Pharmacy, Denmark, Vnr. 475249), or PBS 45 min before habituation to observation container (glass cylinder surrounded by mirrors on 2 sides) for 15 min. […] Mice were recorded for three min after i.pl. injection with capsaicin and euthanized the same day. Mice were scored manually for the amount of time spent paw licking within three min after capsaicin administration. […]

In the case of `CCCCCCCCCCCCCC(=O)N(CCOCCOCCC(=O)N[C@@H](Cc1c[nH]cn1)C(=O)N[C@@H](Cc1c[nH]c2ccccc12)C(=O)N[C@@H](CC(C)C)C(=O)N[C@@H](CCCCN)C(=O)N[C@H](C(=O)O)C(C)C)CCOCCOCCC(=O)N[C@@H](Cc1c[nH]cn1)C(=O)N[C@@H](Cc1c[nH]c2ccccc12)C(=O)N[C@@H](CC(C)C)C(=O)N[C@@H](CCCCN)C(=O)N[C@H](C(=O)O)C(C)C` [mPD5, myristoyl-NPEG4-(HWLKV)2], the “Ultrasonic vocalisations, individual animals (Fig 5E)” value (Baseline) is reported as 4 and 10 and 8 and 9 and 7 and 5, the “Ultrasonic vocalisations, individual animals (Fig 5E)” value (min 60-120 post injection) is reported as 3 and 8 and 1 and 7 and the “effect on SNI-induced increase of vocalizations at 37 kHz” value (SNI, female mice, s.c. 10 μmol/kg, to the level of the naive mice) is reported as “fully reversed”.
